Our source for the IC50, inhibition and Activity values is ChEMBL document CHEMBL5532709, “Discovery of Biofilm Inhibitors from the Microbiota of Marine Egg Masses” (J Nat Prod, 2024).

Active and inactive are the calls of the source. The rule behind the calls is not given here.

The subject of one test is Vibrio cholerae. The test is described as follows: Inhibition of biofilm formation of Vibrio cholerae incubated for 4.5 hrs by epifluorescence based assay. The test is classed as functional, organism-based.
For test [1], the system named is Staphylococcus aureus. The test is described as follows: Inhibition of biofilm formation of methicillin-resistant Staphylococcus aureus N315 at ~1 ug/ml incubated for 24 hrs by crystal violet staining based analysis relative to control. The test is classed as functional.
The test system of test [2] is Staphylococcus aureus. Kind of test: Inhibition of biofilm formation of Staphylococcus aureus incubated for 16 to 20 hrs by crystal violet staining based analysis. The class given is functional, organism-based.
For test [3], the system named is Staphylococcus aureus. Kind of test: Disruption of pre-formed biofilm of Staphylococcus aureus at 518 uM incubated for 16 to 20 hrs by crystal violet staining based analysis relative to control. The test is classed as functional. The conditions noted are these: time 16-20 hrs.
The subject of test [4] is Staphylococcus aureus. The test is described as follows: Inhibition of biofilm formation of Staphylococcus aureus at […] incubated for 16 to 20 hrs in presence of >6.25 uM FeCl3 by crystal violet staining based analysis. The class given is functional, organism-based. The conditions noted are these: dose lower 88.0 mg/ml, time 16-20 hrs.
The subject of test [5] is Staphylococcus aureus. The test is described as follows: Antibacterial activity against Staphylococcus aureus assessed as bacterial growth inhibition at 0.005 to 10 mg/ml incubated for 16 to 20 hrs by crystal violet staining based analysis. The test is classed as functional, organism-based. The conditions noted are these: dose 0.005-10 mg/ml, time 16-20 hrs.
A further test concerns Isoptericola. The test is described as follows: Inhibition of biofilm formation of Isoptericola at 0.005 to 10 mg/ml incubated for 16 to 20 hrs by crystal violet staining based analysis. The class given is functional, organism-based.

In the case of `C=C1Oc2cc(OC)cc(C(=O)OC)c2NC1=O`, 60.1 µM corresponded to half-maximal inhibition with Vibrio cholerae (IC50).

With `CCCCC1CCCCCCc2cc1c(/C=C1\N=C(c3ccc[nH]3)C=C1OC)[nH]2` (stereo not drawn) [STREPTORUBIN B], in the test with Staphylococcus aureus [1], the inhibition at 1 µg/mL was 70%.

Take `O=C(NCCCC[C@@H]1CN=C(c2cccc(O)c2O)N1)c1cccc(O)c1O`: the IC50 came out at 88.5 µM with Staphylococcus aureus [2] and 50.6 µM in the test with Isoptericola. Also, the inhibition entry in the test with Staphylococcus aureus [2] (time 16-20 hrs) is “Dose-Dependent Effect”. Besides, in the test on Staphylococcus aureus [3], the Activity was found to be 30%. Besides, the inhibition result with Staphylococcus aureus [4] and in the test with Staphylococcus aureus [5] was “inactive” throughout.

The term IC50 denotes the concentration at which inhibition is half-maximal. As usually defined, the inhibition is the change of the read-out against control, counted positive when it falls.
